Data published in ChEMBL document CHEMBL1201862, “PubChem BioAssay data set” (2004).
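96-well plates; 48 h exposure; 5 concentrations. Endpoints by linear interpolation between flanking doses. Not reached: highest tested concentration assigned. GI50 = concentration required for 50% inhibition of growth.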 The source made the active and inactive calls. Cut-off read from the data, not from the text of the source: active = GI50 up to about 1.1 µM and inactive = higher.

Experiments:
Assay in all cases: DTP human tumour cell line panel, 48 h
OVCAR-8 = tested on: OVCAR-8
HCT-15 = tested on: HCT-15
BT-549 = tested on: BT-549
UO-31 = tested on: UO-31
ACHN = tested on: ACHN
SNB-75 = tested on: SNB-75
SNB-19 = tested on: SNB-19
SK-MEL-2 = tested on: SK-MEL-2
SN12C = tested on: SN12C
MCF7 = tested on: MCF7
RXF 393 = tested on: RXF 393
NCI/ADR-RES = tested on: NCI/ADR-RES
COLO 205 = tested on: COLO 205
NCI-H23 = tested on: NCI-H23
SW-620 = tested on: SW-620
KM12 = tested on: KM12
RPMI-8226 = tested on: RPMI-8226
TK-10 = tested on: TK-10
CCRF-CEM = tested on: CCRF-CEM

SMILES	GI50 (OVCAR-8)	GI50 (HCT-15)	GI50 (BT-549)	GI50 (UO-31)	GI50 (ACHN)	GI50 (SNB-75)	GI50 (SNB-19)	GI50 (SK-MEL-2)	GI50 (SN12C)	GI50 (MCF7)	GI50 (RXF 393)	GI50 (NCI/ADR-RES)	GI50 (COLO 205)	GI50 (NCI-H23)	GI50 (SW-620)	GI50 (KM12)	GI50 (RPMI-8226)	GI50 (TK-10)	GI50 (CCRF-CEM)
O=C(O)c1cc(C(=O)O)cc(N2C(=O)c3ccccc3C2=O)c1	> 100 µM (inactive)	> 100 µM	> 100 µM (inactive)	> 100 µM (inactive)	> 100 µM (inactive)	> 100 µM (inactive)	> 100 µM (inactive)	> 100 µM (inactive)	> 100 µM (inactive)	> 100 µM (inactive)	> 100 µM (inactive)	> 100 µM (inactive)	> 100 µM (inactive)	> 100 µM (inactive)	> 100 µM (inactive)	> 100 µM (inactive)	> 100 µM (inactive)	> 100 µM (inactive)	–
Cn1c(-c2ccccc2)c2cc3nc4ccccc4nc3cc2c1-c1ccccc1	22.1 µM (inactive)	4.65 µM	21.6 µM (inactive)	22.5 µM (inactive)	17.7 µM (inactive)	26.5 µM (inactive)	20.2 µM (inactive)	17.7 µM (inactive)	13.3 µM (inactive)	12.1 µM (inactive)	22.3 µM (inactive)	23.2 µM (inactive)	2.26 µM (inactive)	7.14 µM (inactive)	15.8 µM (inactive)	11.6 µM (inactive)	12.1 µM (inactive)	41 µM (inactive)	–
Cc1[nH]c(=O)nc(S)c1C(=O)Nc1cccc2cc3ccccc3cc12	> 100 µM (inactive)	> 100 µM	> 100 µM (inactive)	> 100 µM (inactive)	> 100 µM (inactive)	> 100 µM (inactive)	> 100 µM (inactive)	> 100 µM (inactive)	> 100 µM (inactive)	> 100 µM (inactive)	> 100 µM (inactive)	> 100 µM (inactive)	> 100 µM (inactive)	> 100 µM (inactive)	> 100 µM (inactive)	> 100 µM (inactive)	> 100 µM (inactive)	> 100 µM (inactive)	> 100 µM (inactive)
Cc1cccc(NC(=S)NNC(=O)c2cc(-c3ccccc3)nc3ccccc23)c1	39.8 µM (inactive)	36.7 µM	47.9 µM (inactive)	23.1 µM (inactive)	36.1 µM (inactive)	36.6 µM (inactive)	37.8 µM (inactive)	21.8 µM (inactive)	40.1 µM (inactive)	20.5 µM (inactive)	25.4 µM (inactive)	36.7 µM (inactive)	19.5 µM (inactive)	27.9 µM (inactive)	36.3 µM (inactive)	31.8 µM (inactive)	30.1 µM (inactive)	40.4 µM (inactive)	12.7 µM (inactive)
O=C(N/S(=N/S(=O)(=O)c1ccc(Br)cc1)C(Cl)(Cl)Cl)c1ccccc1 (centres undefined)	> 100 µM (inactive)	> 100 µM	> 100 µM (inactive)	> 100 µM (inactive)	> 100 µM (inactive)	23.3 µM (inactive)	> 100 µM (inactive)	> 100 µM (inactive)	> 100 µM (inactive)	> 100 µM (inactive)	> 100 µM (inactive)	> 100 µM (inactive)	> 100 µM (inactive)	> 100 µM (inactive)	> 100 µM (inactive)	> 100 µM (inactive)	> 100 µM (inactive)	> 100 µM (inactive)	> 100 µM (inactive)
OCCn1cnc2c(SCc3ccccc3)ncnc21	> 100 µM (inactive)	11.9 µM	95.7 µM (inactive)	> 100 µM (inactive)	> 100 µM (inactive)	> 100 µM (inactive)	> 100 µM (inactive)	> 100 µM (inactive)	> 100 µM (inactive)	> 100 µM (inactive)	> 100 µM (inactive)	> 100 µM (inactive)	95.5 µM (inactive)	> 100 µM (inactive)	> 100 µM (inactive)	> 100 µM (inactive)	97.5 µM (inactive)	> 100 µM (inactive)	39.1 µM (inactive)
CCOP(=O)(OCC)C(C#N)Cc1ccco1 (centres undefined)	> 10 µM (inactive)	> 10 µM	> 10 µM (inactive)	> 10 µM (inactive)	> 10 µM (inactive)	5.94 µM (inactive)	> 10 µM (inactive)	> 10 µM (inactive)	> 10 µM (inactive)	> 10 µM (inactive)	> 10 µM (inactive)	> 10 µM (inactive)	> 10 µM (inactive)	> 10 µM (inactive)	> 10 µM (inactive)	> 10 µM (inactive)	> 10 µM (inactive)	> 10 µM (inactive)	> 10 µM (inactive)
COc1cc(C(=O)Oc2ccc3c(c2)OCO3)cc(OC)c1OC	> 100 µM (inactive)	> 100 µM	> 100 µM (inactive)	> 100 µM (inactive)	> 100 µM (inactive)	> 100 µM (inactive)	> 100 µM (inactive)	> 100 µM (inactive)	> 100 µM (inactive)	> 100 µM (inactive)	> 100 µM (inactive)	> 100 µM (inactive)	> 100 µM (inactive)	> 100 µM (inactive)	> 100 µM (inactive)	> 100 µM (inactive)	> 100 µM (inactive)	> 100 µM (inactive)	–
O=C(CCCN1CCC2(CC1)CC(=O)N(N1CCOCC1)C2=O)c1ccc(F)cc1	> 100 µM (inactive)	> 100 µM	> 100 µM (inactive)	> 100 µM (inactive)	> 100 µM (inactive)	> 100 µM (inactive)	> 100 µM (inactive)	> 100 µM (inactive)	> 100 µM (inactive)	> 100 µM (inactive)	> 100 µM (inactive)	> 100 µM (inactive)	> 100 µM (inactive)	> 100 µM (inactive)	> 100 µM (inactive)	> 100 µM (inactive)	> 100 µM (inactive)	> 100 µM (inactive)	> 100 µM (inactive)
NC(Cc1ccccc1)c1nn[nH]n1 (centres undefined)	> 100 µM (inactive)	> 100 µM	> 100 µM (inactive)	> 100 µM (inactive)	> 100 µM (inactive)	> 100 µM (inactive)	> 100 µM (inactive)	> 100 µM (inactive)	> 100 µM (inactive)	> 100 µM (inactive)	> 100 µM (inactive)	> 100 µM (inactive)	> 100 µM (inactive)	> 100 µM (inactive)	> 100 µM (inactive)	> 100 µM (inactive)	> 100 µM (inactive)	> 100 µM (inactive)	> 100 µM (inactive)
N=C(N)SCc1ccc(Cl)c2ccccc12.O=[N+]([O-])c1ccc(O)c([N+](=O)[O-])c1	22.1 µM (inactive)	14.5 µM	15.6 µM (inactive)	12.3 µM (inactive)	12.9 µM (inactive)	4.56 µM (inactive)	16.2 µM (inactive)	11.6 µM (inactive)	11 µM (inactive)	10 µM (inactive)	8.02 µM (inactive)	16.7 µM (inactive)	6.81 µM (inactive)	12.6 µM (inactive)	11.7 µM (inactive)	12.3 µM (inactive)	1.32 µM (inactive)	6.84 µM (inactive)	3.23 µM (inactive)
CC(C)CCCC(C)[C@H]1CC[C@H]2[C@@H]3CC[C@H]4C[C@@H](CCC=C(c5cc(Cl)c(O)c(C(=O)OC(C)C)c5)c5cc(Cl)c(O)c(C(=O)OC(C)C)c5)CC[C@]4(C)[C@H]3CC[C@]12C (some centres undefined)	> 50 µM (inactive)	> 50 µM	> 50 µM (inactive)	–	–	> 50 µM (inactive)	> 50 µM (inactive)	> 50 µM (inactive)	> 50 µM (inactive)	> 50 µM (inactive)	> 50 µM (inactive)	> 50 µM (inactive)	> 50 µM (inactive)	> 50 µM (inactive)	> 50 µM (inactive)	> 50 µM (inactive)	> 50 µM (inactive)	–	> 50 µM (inactive)
CC1=C(/C=C/C(=O)O)C(C)(C)CCC1	> 100 µM (inactive)	> 100 µM	> 100 µM (inactive)	> 100 µM (inactive)	> 100 µM (inactive)	> 100 µM (inactive)	> 100 µM (inactive)	> 100 µM (inactive)	> 100 µM (inactive)	> 100 µM (inactive)	> 100 µM (inactive)	> 100 µM (inactive)	> 100 µM (inactive)	> 100 µM (inactive)	> 100 µM (inactive)	–	> 100 µM (inactive)	> 100 µM (inactive)	–
CC(Nc1cc(Cl)cc(Cl)c1)c1ccncc1 (centres undefined)	18.5 µM (inactive)	29.1 µM	22.4 µM (inactive)	13.3 µM (inactive)	22.4 µM (inactive)	23.3 µM (inactive)	33.8 µM (inactive)	> 10 µM (inactive)	> 10 µM (inactive)	16.2 µM (inactive)	20.7 µM (inactive)	20.5 µM (inactive)	15.6 µM (inactive)	23.9 µM (inactive)	17.4 µM (inactive)	–	18.2 µM (inactive)	41.8 µM (inactive)	15.3 µM (inactive)
Cc1c(-c2ccccc2)c(C#N)c2nnn(-c3ccc([N+](=O)[O-])cc3)c(=O)n12	10.9 µM (inactive)	20.7 µM	26.9 µM (inactive)	–	22.2 µM (inactive)	14.5 µM (inactive)	–	8.91 µM (inactive)	22.4 µM (inactive)	16.2 µM (inactive)	17.4 µM (inactive)	15.9 µM (inactive)	7.35 µM (inactive)	21.3 µM (inactive)	7.78 µM (inactive)	12.7 µM (inactive)	20.7 µM (inactive)	28.1 µM (inactive)	8.43 µM (inactive)
